In article PMC8944975, “Secretin Receptor as a Target in Gastrointestinal Cancer: Expression Analysis and Ligand Development” (Biomedicines, 2022):
Where two headings read alike, the source gives them in different places.

Target: human SCTR (Homo sapiens, UniProt P47872)
Assay: agonist-induced β-arr2-GFP translocation
Format: cell-based
Set-up: expressed in transfected cells; host or cells: U2OS (human osteosarcoma), stably co-transfected with β-arrestin2-GFP
Details: for EC50: mean of at least three independent experiments in duplicates; for β-arrestin2-GFP agonism efficacy: % of wild-type secretin
From the text: U2OS-SCTR/β-arr2-GFP: human osteosarcoma cell line U2OS (purchased from ATCC/LGC Standards, Wesel, Germany) were stably transfected with plasmids encoding SCTR (Homo sapiens) and the fusion protein β-arrestin2-green fluorescent protein (GFP) (Rattus norvegicus-Aequorea victoria) (β-arr2-GFP).
To evaluate reactivity of human SCTR exposed to different ligand variants, intracellular translocation of a fusion protein of β-arrestin2 and green fluorescent protein was utilized. For evaluation of activation, receptor-mediated recruitment of cytoplasmic β-arr2-GFP was monitored through its translocation into condensed intracellular vesicles. The extent of translocation events was quantified by determining the increasing granularization of the intracellular fluorescence utilizing an automated high-throughput microscope in combination with computational algorithms to estimate potency (EC50) and efficacy, thus characterizing ligand-SCTR interaction. U2OS-SCTR/β-arr2-GFP cells were seeded in 96-well cell culture plates to 60–80% confluence. On the following day, preceding stimulation, cells were incubated for one hour in serum-free medium. Ligand variants were applied as serial dilutions in assay buffer C1. After preincubation, supernatant was discarded by tapping plates overhead repeatedly. For stimulation, 50 µL of ligand dilution was applied per well in duplicates and incubated for 20 min at 37 °C. Successively, cells were fixed by applying 4% buffered formaldehyde (Herbeta Arzneimittel, Berlin, Germany) for 10 min at room temperature and consecutively permeabilized for 10 min at room temperature with 0.1% TritonX-100 in PBS, containing DAPI (4′,6-Diamidin-2-phenylindol, SigmaAldrich, Deisenhofen, Germany, 1 µg/mL) to counterstain nuclei. Microscopic images were recorded by an IN Cell Analyzer 1000 (GE Healthcare, Reading, UK) with 20× magnification at 5 frames per well in a 96-well format. Image processing was performed with IN Cell Investigator software (GE Healthcare, Reading, UK), applying the provided granularity algorithm. The output of the analysis was indicated as vesicle area/cell and was utilized for calculation of concentration–response curves. Parameters derived from curve fitting included the concentration of half-maximal activity (EC50), and intrinsic activity. Intrinsic activity was normalized defining reaction to non-modified wild type secretin as the 100% curve maximum value.

[1] = Supplementary Tables S1 and S2, decimal comma, '-' not detectable (Figure 4)
[2] = Supplementary Tables S1 and S2, U2OS-SCTR/β-arr2-GFP cells, 20 min at 37 °C, decimal comma, '-' not detectable (Figure 4), read-out: β-arrestin2-GFP agonism potency

Sequence of human SCTR (P47872 23-440): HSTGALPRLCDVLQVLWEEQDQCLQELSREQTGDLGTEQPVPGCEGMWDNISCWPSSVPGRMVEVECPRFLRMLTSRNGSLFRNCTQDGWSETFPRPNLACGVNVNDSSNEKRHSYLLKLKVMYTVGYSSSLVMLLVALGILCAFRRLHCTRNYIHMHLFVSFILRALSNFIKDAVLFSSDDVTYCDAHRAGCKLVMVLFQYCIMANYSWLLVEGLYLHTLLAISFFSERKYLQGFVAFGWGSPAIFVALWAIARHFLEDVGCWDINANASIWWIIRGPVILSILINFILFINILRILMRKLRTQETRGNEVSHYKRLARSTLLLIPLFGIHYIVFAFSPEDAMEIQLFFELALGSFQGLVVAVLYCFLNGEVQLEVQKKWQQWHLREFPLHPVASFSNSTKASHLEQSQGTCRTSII

EC50 (U2OS-SCTR/β-arr2-GFP cells, ligand 20 min at 37 °C, vesicle area/cell by automated microscopy, read-out: EC50, β-arr2-GFP translocation assay) [nM]	Emax (U2OS-SCTR/β-arr2-GFP cells, normalized to wild type secretin = 100% curve maximum, read-out: intrinsic activity (efficacy), β-arr2-GFP translocation assay) [%]	β-arrestin2-GFP agonism efficacy [1]	EC50 [2] [nM]	SMILES
–	–	111,23 % Sec	4.52	CC(C)C[C@H](NC(=O)CNC(=O)[C@H](CCC(N)=O)NC(=O)[C@H](CC(C)C)NC(=O)[C@H](CC(C)C)NC(=O)[C@H](CCCNC(=N)N)NC(=O)[C@H](CCC(N)=O)NC(=O)[C@H](CC(C)C)NC(=O)[C@H](CCCNC(=N)N)NC(=O)[C@H](C)NC(=O)CNC(=O)[C@H](CC(=O)O)NC(=O)[C@H](CCCNC(=N)N)NC(=O)[C@H](CC(C)C)NC(=O)[C@H](CCCNC(=N)N)NC(=O)[C@H](CO)NC(=O)[C@H](CC(C)C)NC(=O)[C@H](CCC(=O)O)NC(=O)[C@H](CO)NC(=O)[C@@H](NC(=O)[C@H](Cc1ccccc1)NC(=O)[C@@H](NC(=O)CNC(=O)[C@H](CC(=O)O)NC(=O)[C@H](CO)NC(=O)[C@@H](N)Cc1c[nH]cn1)[C@@H](C)O)[C@@H](C)O)C(=O)N[C@H](C(=O)O)C(C)C [Peptide 69]
–	–	106,23 % Sec	3.37	CC(C)C[C@H](NC(=O)CNC(=O)[C@H](CCC(N)=O)NC(=O)[C@H](CC(C)C)NC(=O)[C@H](CC(C)C)NC(=O)[C@H](CCCNC(=N)N)NC(=O)[C@H](CCC(N)=O)NC(=O)[C@H](CC(C)C)NC(=O)[C@H](CCCNC(=N)N)NC(=O)[C@H](C)NC(=O)CNC(=O)[C@H](CCC(=O)O)NC(=O)[C@H](CCCNC(=N)N)NC(=O)[C@H](CC(C)C)NC(=O)[C@H](CCCNC(=N)N)NC(=O)[C@H](CO)NC(=O)[C@H](CC(C)C)NC(=O)[C@H](CCC(=O)O)NC(=O)[C@H](CO)NC(=O)[C@@H](NC(=O)[C@H](Cc1ccccc1)NC(=O)[C@@H](NC(=O)CNC(=O)[C@H](CC(=O)O)NC(=O)[C@@H]1CCCN1C(=O)[C@@H](N)Cc1c[nH]cn1)[C@@H](C)O)[C@@H](C)O)C(=O)N[C@H](C(=O)O)C(C)C [Peptide 74]
–	–	103,17 % Sec	22.1	CC(C)C[C@H](NC(=O)[C@H](CCCNC(=N)N)NC(=O)[C@H](C)NC(=O)CNC(=O)[C@H](CCC(=O)O)NC(=O)[C@H](CCCNC(=N)N)NC(=O)[C@H](CC(C)C)NC(=O)[C@H](CCCNC(=N)N)NC(=O)[C@H](CO)NC(=O)[C@H](CC(C)C)NC(=O)[C@H](CCC(=O)O)NC(=O)[C@H](CO)NC(=O)[C@@H](NC(=O)[C@H](Cc1ccccc1)NC(=O)[C@@H](NC(=O)CNC(=O)[C@H](CC(=O)O)NC(=O)[C@H](CO)NC(=O)[C@@H](N)Cc1c[nH]cn1)[C@@H](C)O)[C@@H](C)O)C(=O)N[C@@H](CCC(N)=O)C(=O)N[C@@H](CCCNC(=N)N)C(=O)N[C@@H](CC(C)C)C(=O)N[C@@H](CC(C)C)C(=O)N[C@@H](CCC(N)=O)C(=O)N1CCC[C@H]1C(=O)N[C@@H](CC(C)C)C(=O)N[C@H](C(=O)O)C(C)C [Peptide 83]

More lines, now with the values behind:

SMILES	EC50 (U2OS-SCTR/β-arr2-GFP cells, ligand 20 min at 37 °C, vesicle area/cell by automated microscopy, read-out: EC50, β-arr2-GFP translocation assay) [nM]	Emax (U2OS-SCTR/β-arr2-GFP cells, normalized to wild type secretin = 100% curve maximum, read-out: intrinsic activity (efficacy), β-arr2-GFP translocation assay) [%]	β-arrestin2-GFP agonism efficacy [1]	EC50 [2] [nM]
CC(C)C[C@H](NC(=O)CNC(=O)[C@H](CCC(N)=O)NC(=O)[C@H](CC(C)C)NC(=O)[C@H](CC(C)C)NC(=O)[C@H](CCCNC(=N)N)NC(=O)[C@H](CCC(N)=O)NC(=O)[C@H](CC(C)C)NC(=O)[C@H](CCCNC(=N)N)NC(=O)[C@H](C)NC(=O)CNC(=O)[C@H](CCC(=O)O)NC(=O)[C@H](CCCNC(=N)N)NC(=O)[C@H](CC(C)C)NC(=O)[C@H](CCCNC(=N)N)NC(=O)[C@H](CO)NC(=O)[C@H](CC(C)C)NC(=O)[C@H](CCC(=O)O)NC(=O)[C@H](CO)NC(=O)[C@@H](NC(=O)[C@H](C)NC(=O)[C@@H](NC(=O)CNC(=O)[C@H](CC(=O)O)NC(=O)[C@H](CO)NC(=O)[C@@H](N)Cc1c[nH]cn1)[C@@H](C)O)[C@@H](C)O)C(=O)N[C@H](C(=O)O)C(C)C [Peptide 7]	155 ± 30.8	61.8 ± 4.9	–	–
CC(C)C[C@H](NC(=O)CNC(=O)[C@H](CCC(N)=O)NC(=O)[C@H](CC(C)C)NC(=O)[C@H](CC(C)C)NC(=O)[C@H](CCCNC(=N)N)NC(=O)[C@H](CCC(N)=O)NC(=O)[C@H](CC(C)C)NC(=O)[C@H](CCCNC(=N)N)NC(=O)[C@H](C)NC(=O)CNC(=O)[C@H](CCC(=O)O)NC(=O)[C@H](CCCCN)NC(=O)[C@H](CC(C)C)NC(=O)[C@H](CCCNC(=N)N)NC(=O)[C@H](CO)NC(=O)[C@H](CC(C)C)NC(=O)[C@H](CCC(=O)O)NC(=O)[C@H](CO)NC(=O)[C@@H](NC(=O)[C@H](Cc1ccccc1)NC(=O)[C@@H](NC(=O)CNC(=O)[C@H](CC(=O)O)NC(=O)[C@H](CO)NC(=O)[C@@H](N)Cc1c[nH]cn1)[C@@H](C)O)[C@@H](C)O)C(=O)N[C@H](C(=O)O)C(C)C [Peptide 68]	–	–	114,30 % Sec	9.53
CC(C)C[C@H](NC(=O)CNC(=O)[C@H](CCC(N)=O)NC(=O)[C@H](CC(C)C)NC(=O)[C@H](CC(C)C)NC(=O)[C@H](CCCNC(=N)N)NC(=O)[C@H](CCC(N)=O)NC(=O)[C@H](CC(C)C)NC(=O)[C@H](CCCNC(=N)N)NC(=O)[C@H](CCC(=O)O)NC(=O)CNC(=O)[C@H](CCC(=O)O)NC(=O)[C@H](CCCNC(=N)N)NC(=O)[C@H](CC(C)C)NC(=O)[C@H](CCCNC(=N)N)NC(=O)[C@H](CO)NC(=O)[C@H](CC(C)C)NC(=O)[C@H](CCC(=O)O)NC(=O)[C@H](CO)NC(=O)[C@@H](NC(=O)[C@H](Cc1ccccc1)NC(=O)[C@@H](NC(=O)CNC(=O)[C@H](CC(=O)O)NC(=O)[C@H](CO)NC(=O)[C@@H](N)Cc1c[nH]cn1)[C@@H](C)O)[C@@H](C)O)C(=O)N[C@H](C(=O)O)C(C)C [Peptide 70]	–	–	104,77 % Sec	2.26
CC(C)C[C@H](NC(=O)CNC(=O)[C@H](CCC(N)=O)NC(=O)[C@H](CC(C)C)NC(=O)[C@H](CC(C)C)NC(=O)[C@H](CCCNC(=N)N)NC(=O)[C@H](CCC(=O)O)NC(=O)[C@H](CC(C)C)NC(=O)[C@H](CCCNC(=N)N)NC(=O)[C@H](C)NC(=O)CNC(=O)[C@H](CCC(=O)O)NC(=O)[C@H](CCCNC(=N)N)NC(=O)[C@H](CC(C)C)NC(=O)[C@H](CCCNC(=N)N)NC(=O)[C@H](CO)NC(=O)[C@H](CC(C)C)NC(=O)[C@H](CCC(=O)O)NC(=O)[C@H](CO)NC(=O)[C@@H](NC(=O)[C@H](Cc1ccccc1)NC(=O)[C@@H](NC(=O)CNC(=O)[C@H](CC(=O)O)NC(=O)[C@H](CO)NC(=O)[C@@H](N)Cc1c[nH]cn1)[C@@H](C)O)[C@@H](C)O)C(=O)N[C@H](C(=O)O)C(C)C [Peptide 71]	–	–	100,73 % Sec	2.28
CC(C)C[C@H](NC(=O)CNC(=O)[C@H](CCC(N)=O)NC(=O)[C@H](CC(C)C)NC(=O)[C@H](CC(C)C)NC(=O)[C@H](CCCNC(=N)N)NC(=O)[C@H](CCC(N)=O)NC(=O)[C@H](CC(C)C)NC(=O)[C@H](CCCNC(=N)N)NC(=O)[C@H](C)NC(=O)[C@H](CC(C)C)NC(=O)[C@H](CCC(=O)O)NC(=O)[C@H](CCCNC(=N)N)NC(=O)[C@H](CC(C)C)NC(=O)[C@H](CCCNC(=N)N)NC(=O)[C@H](CO)NC(=O)[C@H](CC(C)C)NC(=O)[C@H](CCC(=O)O)NC(=O)[C@H](CO)NC(=O)[C@@H](NC(=O)[C@H](Cc1ccccc1)NC(=O)[C@@H](NC(=O)CNC(=O)[C@H](CC(=O)O)NC(=O)[C@H](CO)NC(=O)[C@@H](N)Cc1c[nH]cn1)[C@@H](C)O)[C@@H](C)O)C(=O)N[C@H](C(=O)O)C(C)C [Peptide 72]	–	–	104,60 % Sec	3.32
CC(C)C[C@H](NC(=O)CNC(=O)[C@H](CCC(N)=O)NC(=O)[C@H](CC(C)C)NC(=O)[C@H](CC(C)C)NC(=O)[C@H](CCCNC(=N)N)NC(=O)[C@H](CCC(N)=O)NC(=O)[C@H](CC(C)C)NC(=O)[C@H](CCCNC(=N)N)NC(=O)[C@H](C)NC(=O)CNC(=O)[C@H](CCC(=O)O)NC(=O)[C@H](CCCNC(=N)N)NC(=O)[C@H](CC(C)C)NC(=O)[C@H](CCCNC(=N)N)NC(=O)[C@H](CO)NC(=O)[C@H](CC(C)C)NC(=O)[C@H](CCC(=O)O)NC(=O)[C@H](CO)NC(=O)[C@@H](NC(=O)[C@H](Cc1ccccc1)NC(=O)[C@@H](NC(=O)CNC(=O)[C@H](CC(=O)O)NC(=O)[C@H](CO)NC(=O)[C@@H]1CCCN1)[C@@H](C)O)[C@@H](C)O)C(=O)N[C@H](C(=O)O)C(C)C [Peptide 73]	–	–	96,57 % Sec	39.1
